Source: ChEMBL document CHEMBL1157802, “5-Functionalized indazoles as glucocorticoid receptor agonists” (Bioorg Med Chem Lett, 2010)

Legend:
[1] = target: Mu-type opioid receptor (Homo sapiens) (UniProt P35372); assay: Inhibition of mu opioid receptor at 1 uM
[2] = Inhibition of central benzodiazepine receptor at 1 uM
[3] = target: T1, Muscarinic acetylcholine receptor M2 (Homo sapiens) (UniProt P08172); assay: Inhibition of muscarinic M2 receptor at 1 uM
T1 sequence (whole entry): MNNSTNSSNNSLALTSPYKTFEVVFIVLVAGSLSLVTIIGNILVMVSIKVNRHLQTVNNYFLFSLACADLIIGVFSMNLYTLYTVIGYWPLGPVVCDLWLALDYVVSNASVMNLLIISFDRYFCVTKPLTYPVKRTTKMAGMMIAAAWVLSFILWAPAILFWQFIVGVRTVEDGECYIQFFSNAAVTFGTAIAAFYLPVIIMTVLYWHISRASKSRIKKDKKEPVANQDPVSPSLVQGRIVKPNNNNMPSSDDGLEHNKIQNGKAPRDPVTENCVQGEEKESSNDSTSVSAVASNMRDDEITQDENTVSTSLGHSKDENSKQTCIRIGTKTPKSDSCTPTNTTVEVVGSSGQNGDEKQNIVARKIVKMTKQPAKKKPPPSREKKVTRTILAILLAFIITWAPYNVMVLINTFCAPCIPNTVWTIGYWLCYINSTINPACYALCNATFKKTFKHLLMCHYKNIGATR

[4] = Inhibition of NMDA receptor at 1 uM
[5] = target: T2, Alpha-1B adrenergic receptor (Homo sapiens) (UniProt P35368); assay: Inhibition of adrenergic Alpha-1B receptor at 1 uM
T2 sequence (whole entry): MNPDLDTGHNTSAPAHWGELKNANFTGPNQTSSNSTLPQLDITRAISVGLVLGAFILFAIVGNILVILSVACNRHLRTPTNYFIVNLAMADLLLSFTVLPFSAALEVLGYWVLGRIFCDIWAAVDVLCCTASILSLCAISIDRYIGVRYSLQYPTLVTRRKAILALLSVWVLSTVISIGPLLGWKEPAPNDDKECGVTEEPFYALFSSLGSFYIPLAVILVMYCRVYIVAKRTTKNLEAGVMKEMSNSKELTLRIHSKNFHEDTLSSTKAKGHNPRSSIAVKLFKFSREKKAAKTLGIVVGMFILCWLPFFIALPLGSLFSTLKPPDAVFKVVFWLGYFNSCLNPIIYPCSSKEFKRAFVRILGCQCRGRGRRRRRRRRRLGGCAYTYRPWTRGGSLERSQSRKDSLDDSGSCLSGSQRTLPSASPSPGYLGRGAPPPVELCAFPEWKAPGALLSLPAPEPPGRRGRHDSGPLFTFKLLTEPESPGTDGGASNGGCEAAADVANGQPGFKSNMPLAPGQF

[6] = Inhibition of rolipram binding site at 1 uM
[7] = target: T3, Alpha-2A adrenergic receptor (Homo sapiens) (UniProt P08913); assay: Inhibition of adrenergic alpha2A receptor at 1 uM
T3 sequence (whole entry): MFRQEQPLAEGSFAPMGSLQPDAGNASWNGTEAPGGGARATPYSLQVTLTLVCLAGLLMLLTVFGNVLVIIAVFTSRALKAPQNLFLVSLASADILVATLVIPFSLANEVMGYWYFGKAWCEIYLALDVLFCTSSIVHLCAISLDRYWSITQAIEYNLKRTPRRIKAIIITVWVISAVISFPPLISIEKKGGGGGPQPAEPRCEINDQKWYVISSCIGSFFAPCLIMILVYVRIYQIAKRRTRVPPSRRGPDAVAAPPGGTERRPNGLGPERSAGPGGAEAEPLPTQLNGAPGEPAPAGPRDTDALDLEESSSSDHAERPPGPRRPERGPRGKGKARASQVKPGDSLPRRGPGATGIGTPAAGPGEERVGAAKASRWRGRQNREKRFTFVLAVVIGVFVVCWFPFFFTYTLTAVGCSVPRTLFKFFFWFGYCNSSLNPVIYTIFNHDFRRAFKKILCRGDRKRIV

[8] = target: D(1A) dopamine receptor (Homo sapiens) (UniProt P21728); assay: Inhibition of dopamine D1 receptor at 1 uM
[9] = target: Prostaglandin E2 receptor EP4 subtype (Homo sapiens) (UniProt P35408); assay: Inhibition of prostanoid EP4 receptor at 1 uM

Measured: inhibition

Sequence of Mu-type opioid receptor (Homo sapiens) (P35372 whole entry): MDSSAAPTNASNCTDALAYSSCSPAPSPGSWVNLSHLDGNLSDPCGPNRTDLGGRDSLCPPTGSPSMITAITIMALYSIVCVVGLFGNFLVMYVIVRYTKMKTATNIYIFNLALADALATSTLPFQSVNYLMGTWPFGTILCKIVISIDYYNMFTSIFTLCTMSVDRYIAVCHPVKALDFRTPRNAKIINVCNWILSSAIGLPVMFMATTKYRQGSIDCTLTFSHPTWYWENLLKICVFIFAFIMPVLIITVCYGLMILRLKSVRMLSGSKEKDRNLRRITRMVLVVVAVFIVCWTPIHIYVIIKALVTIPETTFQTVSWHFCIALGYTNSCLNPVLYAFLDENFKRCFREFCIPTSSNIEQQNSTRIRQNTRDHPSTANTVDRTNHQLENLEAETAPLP
Sequence of Prostaglandin E2 receptor EP4 subtype (Homo sapiens) (P35408 whole entry): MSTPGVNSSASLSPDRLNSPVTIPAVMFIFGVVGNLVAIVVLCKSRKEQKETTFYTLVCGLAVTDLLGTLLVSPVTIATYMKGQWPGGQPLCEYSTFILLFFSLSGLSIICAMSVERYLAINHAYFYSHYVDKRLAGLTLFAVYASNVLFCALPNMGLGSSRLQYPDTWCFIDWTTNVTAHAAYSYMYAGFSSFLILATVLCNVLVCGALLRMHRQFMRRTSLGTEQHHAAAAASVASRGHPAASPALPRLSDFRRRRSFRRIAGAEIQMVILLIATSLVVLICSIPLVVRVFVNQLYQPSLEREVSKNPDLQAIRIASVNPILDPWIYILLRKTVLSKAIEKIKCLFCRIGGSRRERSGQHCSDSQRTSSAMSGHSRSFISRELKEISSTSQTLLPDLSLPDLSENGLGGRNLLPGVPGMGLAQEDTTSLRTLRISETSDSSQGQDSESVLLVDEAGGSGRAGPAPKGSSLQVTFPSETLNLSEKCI
Sequence of D(1A) dopamine receptor (Homo sapiens) (P21728 whole entry): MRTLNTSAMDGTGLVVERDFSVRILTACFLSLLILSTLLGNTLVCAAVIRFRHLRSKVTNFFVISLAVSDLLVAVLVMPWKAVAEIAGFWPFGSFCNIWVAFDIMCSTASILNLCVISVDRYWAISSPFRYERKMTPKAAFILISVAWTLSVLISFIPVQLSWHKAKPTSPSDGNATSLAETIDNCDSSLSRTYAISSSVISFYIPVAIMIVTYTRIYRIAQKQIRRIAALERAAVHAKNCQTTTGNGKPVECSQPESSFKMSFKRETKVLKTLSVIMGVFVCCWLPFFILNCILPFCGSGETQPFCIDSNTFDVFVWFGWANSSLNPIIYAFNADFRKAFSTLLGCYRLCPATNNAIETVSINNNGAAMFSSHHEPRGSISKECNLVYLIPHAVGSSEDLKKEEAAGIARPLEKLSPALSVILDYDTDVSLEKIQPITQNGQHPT

Cc1cc(C(O)(c2ccc3c(cnn3-c3ccc(F)cc3)c2)C(F)(F)F)ccc1F (single isomer, unassigned; (-))
< 50%: all assays above

OC(c1ccnc(Cl)c1)(c1ccc2c(cnn2-c2ccc(F)cc2)c1)C(F)(F)F (single isomer, unassigned; (-))
< 50%: all assays above
